The values that follow come from patent US20260234157A1, “COMPOUND AND METHOD FOR TARGETED DEGRADATION OF ANDROGEN RECEPTOR” (Gan & Lee Pharmaceuticals Co., Ltd., priority 2023, published 2026).

Holding throughout (assay type): cell-based
One experiment deals with VCaP cells. In words: Inhibition of proliferation of VCaP cells (WST-8). To be noted: Homo sapiens, VCaP, 168 h, read-out: IC50 for inhibiting the proliferation of VCaP cells. The protocol: The inhibitory activity of the compounds disclosed in the present disclosure on the proliferation of VCaP cells
On the first day of the experiment, […] were inoculated in 96 well plates at a density of 15000 cells per well using DMEM medium containing 10% fetal bovine serum, with 100 μL of cell suspension per well. The cells were cultured in a cell culture incubator with 5% CO2 at 37° C. overnight. […] On the ninth day, 96 well plates were taken out, and 20 μL of WST-8 (Beytime, C0040) reagent was added to each well.

For experiment [1], the target named is T1, AR protein (Homo sapiens, UniProt P10275, T878A).
T1 construct: degradation activity of the compounds disclosed in the present disclosure on AR protein in LNCaP cells; host or cells: LNCaP FGC
T1 sequence (P10275 1-920 T878A): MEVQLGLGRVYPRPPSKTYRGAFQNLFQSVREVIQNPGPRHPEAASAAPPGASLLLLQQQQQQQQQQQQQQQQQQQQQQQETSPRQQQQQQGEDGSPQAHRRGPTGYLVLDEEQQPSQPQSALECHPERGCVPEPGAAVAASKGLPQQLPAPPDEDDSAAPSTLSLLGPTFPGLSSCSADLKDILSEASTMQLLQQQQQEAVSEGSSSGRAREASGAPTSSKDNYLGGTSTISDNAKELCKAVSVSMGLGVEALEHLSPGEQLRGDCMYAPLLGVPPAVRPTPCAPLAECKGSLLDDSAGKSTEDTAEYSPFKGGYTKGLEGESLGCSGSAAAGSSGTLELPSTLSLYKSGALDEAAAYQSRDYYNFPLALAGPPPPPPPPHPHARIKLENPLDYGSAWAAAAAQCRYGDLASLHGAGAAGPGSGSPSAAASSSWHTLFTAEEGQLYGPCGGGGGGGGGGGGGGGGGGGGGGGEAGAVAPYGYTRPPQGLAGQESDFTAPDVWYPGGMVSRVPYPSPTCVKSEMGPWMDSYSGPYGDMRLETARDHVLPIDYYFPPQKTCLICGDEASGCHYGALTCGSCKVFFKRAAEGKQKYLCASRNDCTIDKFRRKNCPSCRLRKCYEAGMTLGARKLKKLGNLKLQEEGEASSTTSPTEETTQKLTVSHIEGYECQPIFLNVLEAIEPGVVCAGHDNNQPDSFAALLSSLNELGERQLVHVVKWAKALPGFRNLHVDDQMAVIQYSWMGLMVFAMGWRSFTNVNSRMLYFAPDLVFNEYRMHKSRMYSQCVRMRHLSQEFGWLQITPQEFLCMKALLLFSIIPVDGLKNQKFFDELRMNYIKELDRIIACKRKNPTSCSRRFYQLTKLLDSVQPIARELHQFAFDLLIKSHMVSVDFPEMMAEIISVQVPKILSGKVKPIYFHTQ
Kind of experiment: Degradation of AR protein in LNCaP cells (Western blot). To be noted: for inhibition at 0.01 µM: read-out: Degradation rates of the AR protein in LNCaP cells, 10 nM (%); for inhibition at 0.1 µM: read-out: Degradation rates of the AR protein in LNCaP cells, 100 nM (%). Put shortly:
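AR assessed by SDS-PAGE/Western blot with infrared imaging; band greyscale normalised to GAPDH gave percent degradation.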
(In general: Immunoblotting shows a protein as a band on a membrane.)

The next experiment relates to LNCaP FGC cells. In words: Inhibition of proliferation of LNCaP cells (WST-8). Here is the method:
The cells were cultured in a cell culture incubator with 5% CO2 at 37° C. overnight. […] On the sixth day, 96 well plates were taken out, and 20 μL of WST-8 (Beytime, C0040) reagent was added to each well.
Background: Formazan colour is commonly taken as a measure of viable cells.

In experiment [2] the target is T2, AR protein (Homo sapiens, UniProt P10275).
T2 construct: degradation activity of the compounds disclosed in the present disclosure on AR protein in VCaP cells; host or cells: VCaP
T2 sequence (P10275 1-920): T1 sequence (P10275 1-920 T878A) with A878T
Kind of experiment: Degradation of AR protein in VCaP cells (Western blot). To be noted: 8 hours; for inhibition at 0.01 µM: read-out: Degradation rate of the AR protein in VCaP cells, 10 nM (%); for inhibition at 0.1 µM: read-out: Degradation rate of the AR protein in VCaP cells, 100 nM (%). In short, it runs like this:
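VCaP cells treated with compound alongside solvent controls for 8 h, then lysed in RIPA and protein quantified by BCA. AR detected by SDS-PAGE/Western blot with infrared imaging. Degradation rate calculated from band grayscale, with GAPDH as internal reference.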

The mark [3] stands for this setting: LNCaP cells, compound 10 nM, 8 hours, Western blot grayscale, GAPDH internal reference.
[4] abbreviates: LNCaP cells, compound 100 nM, 8 hours, Western blot grayscale, GAPDH internal reference.
[5] abbreviates: Homo sapiens, LNCaP, 96 h, LNCaP FGC cells, 96 hours, WST-8 absorbance at 450 nm, read-out: IC50 for inhibiting the proliferation of LNCaP cells.

The structures appear in SMILES notation. Residue numbers refer to the chain shown, from its start. Read-outs that look alike come from different tables or passages of the source.

Turning to `CC1(C)C(=O)N(c2ccc(C#N)c(C(F)(F)F)c2)C(=S)N1c1ccc(C(=O)N2CC(CN3CCC4(CCc5cc6c(cc5O4)C(=O)N(C4CCC(=O)NC4=O)C6=O)CC3)C2)c(F)c1` (centres unmarked) [Compound 84], the IC50 in the experiment with VCaP cells was 4570 nM.

Regarding `CC1(C)C(=O)N(c2ccc(C#N)c(C(F)(F)F)c2)C(=S)N1c1ccc(C(=O)N2CCC(F)(CN3CCC4(CCc5cc6c(cc5O4)C(=O)N(C4CCC(=O)NC4=O)C6=O)CC3)CC2)c(F)c1` (centres unmarked) [Compound 97], the IC50 in the experiment on VCaP cells stood at 1300 nM.

In the case of `COc1cc(O[C@H]2C(C)(C)[C@H](NC(=O)c3ccc(N4CCC(CN5CCC6(CC5)COc5c6ccc6c5CN(C5CCC(=O)NC5=O)C6=O)(OC)CC4)cc3)C2(C)C)ccc1C#N` (some centres unmarked) [Compound 217], the results for the inhibition at 0.01 µM at AR protein [1] (setting [3]) and at AR protein [2] (compound at 10 nM) were -2% and 49%, respectively. Besides, the inhibition at 0.1 µM came out at 48% on AR protein [1] (setting [4]) and 83% at AR protein [2] (compound at 100 nM). Besides, the IC50 in the experiment on LNCaP FGC cells (setting [5]) came to 5 nM.

Consider `COc1cc(O[C@H]2C(C)(C)[C@H](NC(=O)c3ccc(N4CCC(C#N)(CN5CCC6(CC5)COc5c6ccc6c5CN(C5CCC(=O)NC5=O)C6=O)CC4)nn3)C2(C)C)ccc1C#N` (some centres unmarked) [Compound 224], for which the inhibition at 0.01 µM at AR protein [1] (setting [3]) amounted to 41%; at AR protein [2] (compound at 10 nM) it was 24%. Also, the inhibition at 0.1 µM at AR protein [1] (setting [4]) stood at 52%; at AR protein [2] (compound at 100 nM), 57%. Besides, the IC50 in the experiment with LNCaP FGC cells (setting [5]) is 11 nM.

For the compound `CC1(C)[C@H](NC(=O)c2ccc(N3CCC(C#N)(CN4CCC5(CC4)COc4c5ccc5c4CN(C4CCC(=O)NC4=O)C5=O)CC3)nn2)C(C)(C)[C@H]1Oc1ccc(C#N)c(Cl)c1` (some centres unmarked) [Compound 225], the inhibition at 0.01 µM at AR protein [1] (setting [3]) was -35%; on AR protein [2] (compound at 10 nM), -29%. Further, the inhibition at 0.1 µM on AR protein [1] (setting [4]) is 7%; on AR protein [2] (compound at 100 nM), 30%. For the same compound, the IC50 with LNCaP FGC cells (setting [5]) turned out to be 30 nM.

As to `COc1cc(O[C@H]2C(C)(C)[C@H](NC(=O)c3ccc(N4CCC(C)(CN5CCC6(CCc7ccc8c(c7O6)C(=O)N(C6CCC(=O)NC6=O)C8=O)CC5)CC4)cc3)C2(C)C)ccc1C#N` (some centres unmarked) [Compound 268], the inhibition at 0.01 µM on AR protein [1] (setting [3]) was 15%; on AR protein [2] (compound at 10 nM) it was -26%. Besides, the inhibition at 0.1 µM is 31% on AR protein [1] (setting [4]) and -32% at AR protein [2] (compound at 100 nM). In the experiment with LNCaP FGC cells (setting [5]), the IC50 came to 88600 nM.

Regarding `COCC1(CN2CCC3(CC2)COc2c3ccc3c2CN(C2CCC(=O)NC2=O)C3=O)CCN(c2ccc(C(=O)N[C@H]3CC[C@H](Oc4ccc(C#N)c(Cl)c4)CC3)nn2)CC1` (some centres unmarked) [Compound 258], the figures for the inhibition at 0.01 µM at AR protein [1] (setting [3]) and at AR protein [2] (compound at 10 nM) were 71% and 60%, respectively. Further, the inhibition at 0.1 µM on AR protein [1] (setting [4]) was found to be 67%; at AR protein [2] (compound at 100 nM), 84%. The IC50 in the experiment on LNCaP FGC cells (setting [5]) is 17 nM.

For `N#Cc1ccc(O[C@H]2CC[C@H](NC(=O)c3ccc(C#CC4CC5(C4)CC(N4CCC6(CC4)COc4c6ccc6c4CN(C4CCC(=O)NC4=O)C6=O)C5)nn3)CC2)cc1Cl` (some centres unmarked) [Compound 252], the inhibition at 0.01 µM worked out at 56% at AR protein [1] (setting [3]) and 80% at AR protein [2] (compound at 10 nM). In addition, the inhibition at 0.1 µM on AR protein [1] (setting [4]) was 70%; at AR protein [2] (compound at 100 nM), 87%. The IC50 in the experiment with LNCaP FGC cells (setting [5]) amounted to 6240 nM.

Consider `N#Cc1ccc(O[C@H]2CC[C@H](NC(=O)c3ccc(N4CCC(F)(CN5CCC6(CCc7ccc8c(c7O6)CN(C6CCC(=O)NC6=O)C8=O)CC5)CC4)nn3)CC2)cc1Cl` (some centres unmarked) [Compound 166], for which the inhibition at 0.01 µM on AR protein [1] (setting [3]) was 36%. Further, on AR protein [1] (setting [4]), the inhibition at 0.1 µM was 19%. The IC50 in the experiment with LNCaP FGC cells (LNCaP FGC cells, 96 hours, WST-8 absorbance at 450 nm, read-out: IC50 for inhibiting the proliferation of LNCaP cells) is 71800 nM. For the same compound, on AR protein [2] (compound at 10 nM), the “Degradation rate of the AR protein in VCaP cells, 10 nM (%)” value is on record as 15% and the inhibition at 0.01 µM was 43%. For the same compound, at AR protein [2] (compound at 100 nM), the “Degradation rate of the AR protein in VCaP cells, 100 nM (%)” value turned out to be 42% and the inhibition at 0.1 µM amounted to 60%.

For `N#Cc1ccc(O[C@H]2CC[C@H](NC(=O)c3ccc(N4CC5(CCC(N6CCC7(CCc8ccc9c(c8O7)CN(C7CCC(=O)NC7=O)C9=O)CC6)CC5)C4)nn3)CC2)cc1Cl` (some centres unmarked) [Compound 153], the figures for the inhibition at 0.01 µM at AR protein [1] (setting [3]) and on AR protein [2] (compound at 10 nM) were 23% and 35%, respectively. In addition, the inhibition at 0.1 µM stood at 19% on AR protein [1] (setting [4]) and 76% at AR protein [2] (compound at 100 nM). Moreover, the IC50 in the experiment with LNCaP FGC cells (setting [5]) was determined as 13600 nM.

In the case of `COc1cc(O[C@H]2C(C)(C)[C@H](NC(=O)c3ccc(N4CCC(F)(CN5CCC6(CC5)COc5c6ccc6c5CN(C5CCC(=O)NC5=O)C6=O)CC4)cc3)C2(C)C)ccc1C#N` (some centres unmarked) [Compound 223], the inhibition at 0.01 µM at AR protein [1] (setting [3]) was 27%; on AR protein [2] (compound at 10 nM), -3%. Moreover, the inhibition at 0.1 µM on AR protein [1] (setting [4]) is 20%; at AR protein [2] (compound at 100 nM) it was 52%. Moreover, the IC50 in the experiment on LNCaP FGC cells (setting [5]) was 9 nM.

In the case of `COc1cc(O[C@H]2CC[C@H](NC(=O)c3ccc(N4CCC(CN5CC6(CCc7cc8c(cc7O6)C(=O)N(C6CCC(=O)NC6=O)C8=O)C5)(OC)CC4)cc3)CC2)ccc1C#N` (some centres unmarked) [Compound 285], the inhibition at 0.01 µM is 40% on AR protein [1] (LNCaP, 8 h) and -5% on AR protein [2] (compound at 10 nM). In addition, the inhibition at 0.1 µM on AR protein [1] (LNCaP, 8 h) was determined as 54%; at AR protein [2] (compound at 100 nM), 66%. Further, the IC50 with LNCaP FGC cells (Homo sapiens, LNCaP, 96 h, read-out: IC50 for inhibiting the proliferation of LNCaP cells, LNCaP FGC cells, 96 hours, WST-8 absorbance at 450 nm) is 840 nM.

For the compound `N#Cc1ccc(O[C@H]2CC[C@H](NC(=O)c3ccc(N4CCC5(CCC(C(=O)N6CCC7(CC6)COc6c7ccc7c6CN(C6CCC(=O)NC6=O)C7=O)CC5)CC4)nn3)CC2)cc1Cl` (some centres unmarked) [Compound 253], the inhibition at 0.01 µM came out at 37% at AR protein [1] (setting [3]) and 10% at AR protein [2] (compound at 10 nM). Also, the results for the inhibition at 0.1 µM on AR protein [1] (setting [4]) and at AR protein [2] (compound at 100 nM) were 41% and 55%, respectively. Besides, the IC50 in the experiment with LNCaP FGC cells (setting [5]) is 550 nM.
